This is an account of results in article PMC9218685, “Legume Plant Peptides as Sources of Novel Antimicrobial Molecules Against Human Pathogens” (Frontiers in Molecular Biosciences, 2022).

Molecules are shown by their SMILES. Values after ≈ are worked out from the molar mass of the structure shown. Peptide text beside a SMILES is read from it.

What all share (assay type): cell-based
Assay [1] has as its system E. coli, S. enteritidis, P. aeruginosa, L. monocytogenes, S. aureus, E. faecalis, K. pneumoniae and A. baumannii. Kind of assay: Antimicrobial activity assay, spectrum over the eight tested pathogenic bacteria. Conditions: 3 h treatment of ~10^7 log phase bacteria, peptides 25 to 0.8 µM; active = MBC ≤25 µM. In short, it runs like this:
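Log-phase bacteria (~10^7) treated 3 h with NCR peptides in potassium-phosphate buffer pH 7.4, two-fold dilutions from 25 µM to 0.8 µM. MBC is the lowest concentration completely eliminating viable bacteria. Strains: E. faecalis ATCC 29212, S. aureus HNCMO112011, L. monocytogenes ATCC 19111, P. aeruginosa ATCC 27853, E. coli ATCC 8739, S. enterica ATCC 13076, K. pneumoniae NCTC 13440, A. baumannii ATCC 17978.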

Assay [2] deals with Acinetobacter baumannii (ATCC 17978). Put plainly: microbe, parasite or virus in culture. The following applies: ATCC 17978, 3 h. In short, it runs like this:
(§1)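 Complete loss of viable bacteria after 3 h defined the MBC. Two-fold peptide series, 25 µM top concentration, ~10^7 log-phase cells in potassium-phosphate buffer pH 7.4.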

Assay [3] concerns Klebsiella pneumoniae (NCTC 13440). Conditions: NCTC 13440, 3 h. In short, it runs like this:
as §1

Assay [4] relates to Pseudomonas aeruginosa (ATCC 27853). The following applies: ATCC 27853, 3 h. The method, boiled down:
as §1

Assay [5] deals with Salmonella enterica (ATCC 13076). The following applies: ATCC 13076, 3 h. The method, boiled down: as §1
Assay [6] relates to Escherichia coli (ATCC 8739). The following applies: ATCC 8739, 3 h. In short, it runs like this:
as §1

Assay [7] concerns Listeria monocytogenes (ATCC 19111). Conditions: ATCC 19111, 3 h. The method, boiled down:
as §1

The test system of assay [8] is Staphylococcus aureus (HNCMO112011). The following applies: HNCMO112011, 3 h. The method, boiled down: as §1
In assay [9] the test system is Enterococcus faecalis (ATCC 29212). In short, it runs like this: as §1

On to `CSCC[C@H](NC(=O)[C@H](Cc1ccccc1)NC(=O)[C@H](CCCCN)NC(=O)[C@@H]1CCCN1C(=O)[C@H](CS)NC(=O)[C@H](CCCNC(=N)N)NC(=O)CNC(=O)[C@H](CC(=O)O)NC(=O)[C@H](CCCNC(=N)N)NC(=O)CNC(=O)[C@H](CS)NC(=O)[C@H](CC(C)C)NC(=O)[C@@H](NC(=O)[C@H](CCCNC(=N)N)NC(=O)[C@@H](N)CCSC)C(C)C)C(=O)N[C@@H](CS)C(=O)N[C@@H](CCCNC(=N)N)C(=O)N[C@H](C(=O)N[C@@H](Cc1ccccc1)C(=O)N[C@@H](CC(C)C)C(=O)O)[C@@H](C)O` [NCR280] (H-MRVLCGRDGRCPKFMCRTFL-OH; N-terminus assumed), for which the “Antibacterial spectrum over the eight tested bacterial strains” value in assay [1] is “active against all strains except S. aureus and E. faecalis”. Also, the “MBC Acinetobacter baumannii” value in assay [2] amounted to 1.6 µM (≈ 3.82 µg/mL). The “MBC Klebsiella pneumoniae” value in assay [3] was 25 µM (≈ 59.8 µg/mL). The “MBC Pseudomonas aeruginosa” value in [4] was 12.5 µM (≈ 29.9 µg/mL). Also, in assay [5], the “MBC Salmonella enterica” value worked out at 3.125 µM (≈ 7.47 µg/mL). For the same compound, in assay [6], the “MBC Escherichia coli” value is recorded as 3.125 µM (≈ 7.47 µg/mL). Besides, the “MBC Listeria monocytogenes” value in [7] came to 3.125 µM (≈ 7.47 µg/mL).

Turning to `CC[C@H](C)[C@H](NC(=O)CNC(=O)[C@H](CCCNC(=N)N)NC(=O)[C@H](CCCCN)NC(=O)[C@H](CCCNC(=N)N)NC(=O)[C@@H](NC(=O)[C@H](CCCCN)NC(=O)[C@H](CS)NC(=O)[C@H](CC(C)C)NC(=O)CNC(=O)CNC(=O)[C@@H](NC(=O)[C@H](CS)NC(=O)[C@H](CCCNC(=N)N)NC(=O)[C@@H](N)Cc1c[nH]cn1)[C@@H](C)CC)C(C)C)C(=O)N[C@@H](CCCCN)C(=O)NCC(=O)N[C@@H](Cc1ccccc1)C(=O)N[C@H](C(=O)N[C@@H](CC(N)=O)C(=O)N[C@H](C(=O)N1CCC[C@H]1C(N)=O)[C@@H](C)CC)[C@@H](C)CC` [GoNCR313 (23-44)] (H-HRCIGGLCKVRKRGIKGFINIP-NH2; N-terminus assumed), the “MBC Klebsiella pneumoniae” value in assay [3] is reported as 12.5 µM (≈ 30.8 µg/mL). In addition, the “MBC Pseudomonas aeruginosa” value in [4] amounted to 3.125 µM (≈ 7.7 µg/mL). Moreover, the “MBC Salmonella enterica” value in assay [5] is 6.25 µM (≈ 15.4 µg/mL). Further, the “MBC Escherichia coli” value in assay [6] is recorded as 3.125 µM (≈ 7.7 µg/mL).

As for `CC(C)C[C@H](NC(=O)[C@H](CS)NC(=O)[C@H](CCCCN)NC(=O)CNC(=O)[C@@H](N)Cc1ccccc1)C(=O)N[C@@H](CCCCN)C(=O)N[C@@H](CC(C)C)C(=O)N[C@@H](CCCCN)C(=O)N[C@@H](CS)C(=O)N[C@H](C(=O)N[C@@H](Cc1ccc(O)cc1)C(=O)N[C@H](C(=O)N1CCC[C@H]1C(=O)N[C@@H](CCCCN)C(=O)N[C@@H](CCCNC(=N)N)C(N)=O)[C@@H](C)O)C(C)C` [GoNCR308 (16-30)] (H-FGKCLKLKCVYTPKR-NH2; N-terminus assumed), in assay [2], the “MBC Acinetobacter baumannii” value is 3.125 µM (≈ 5.57 µg/mL). For the same compound, the “MBC Klebsiella pneumoniae” value in assay [3] is 25 µM (≈ 44.6 µg/mL). Besides, in assay [4], the “MBC Pseudomonas aeruginosa” value turned out to be 3.125 µM (≈ 5.57 µg/mL). Moreover, in assay [8], the “MBC Staphylococcus aureus” value is listed as 50 µM (≈ 89.2 µg/mL). In addition, the “MBC Salmonella enterica” value in assay [5] is 3.125 µM (≈ 5.57 µg/mL). The “MBC Escherichia coli” value in [6] was 3.125 µM (≈ 5.57 µg/mL).

`CC[C@H](C)[C@H](NC(=O)[C@H](CC(N)=O)NC(=O)[C@H](Cc1ccc(O)cc1)NC(=O)[C@H](CCCCN)NC(=O)[C@H](CCCCN)NC(=O)[C@H](Cc1ccccc1)NC(=O)[C@H](CCCCN)NC(=O)[C@@H]1CCCN1C(=O)[C@H](CS)NC(=O)[C@H](CC(=O)O)NC(=O)[C@H](CCCCN)NC(=O)[C@H](CC(=O)O)NC(=O)[C@@H](NC(=O)[C@@H](NC(=O)[C@H](CS)NC(=O)[C@H](Cc1ccc(O)cc1)NC(=O)[C@H](CCC(N)=O)NC(=O)[C@H](CCCNC(=N)N)NC(=O)[C@@H](NC(=O)[C@H](CC(C)C)NC(=O)[C@@H]1CCCN1C(=O)[C@H](CC(N)=O)NC(=O)[C@H](Cc1ccccc1)NC(=O)[C@H](CO)NC(=O)[C@@H](N)CC(=O)O)[C@@H](C)CC)C(C)C)[C@@H](C)O)C(=O)N[C@@H](CCCNC(=N)N)C(=O)N[C@@H](CS)C(=O)N[C@@H](CCCNC(=N)N)C(=O)N[C@@H](CCCCN)C(=O)NCC(=O)N[C@@H](Cc1ccccc1)C(=O)N[C@@H](CS)C(=O)N[C@H](C(=O)N[C@@H](CCC(N)=O)C(=O)N[C@H](C(=O)N[C@@H](CC(N)=O)C(=O)NCC(=O)NCC(=O)O)C(C)C)C(C)C` [NCR377] (H-DSFNPLIRQYCVTDKDCPKFKKYNIRCRKGFCVQVNGG-OH; N-terminus assumed): in [1], the “Antibacterial spectrum over the eight tested bacterial strains” value is on record as “kill all bacteria except E. faecalis”. Further, the “MBC Acinetobacter baumannii” value in assay [2] is given as 6.25 µM (≈ 27.8 µg/mL). The “MBC Klebsiella pneumoniae” value in assay [3] is 12.5 µM (≈ 55.5 µg/mL). Besides, the “MBC Pseudomonas aeruginosa” value in assay [4] was found to be 3.125 µM (≈ 13.9 µg/mL). Further, the “MBC Staphylococcus aureus” value in [8] is 6.25 µM (≈ 27.8 µg/mL). Besides, in [5], the “MBC Salmonella enterica” value stood at 6.25 µM (≈ 27.8 µg/mL). In addition, the “MBC Escherichia coli” value in [6] is 3.125 µM (≈ 13.9 µg/mL). Also, the “MBC Listeria monocytogenes” value in assay [7] is listed as 12.5 µM (≈ 55.5 µg/mL).

`CC[C@H](C)[C@H](NC(=O)[C@H](CC(C)C)NC(=O)[C@H](CC(N)=O)NC(=O)[C@@H](NC(=O)[C@H](CS)NC(=O)[C@H](Cc1ccc(O)cc1)NC(=O)CNC(=O)[C@H](CCCCN)NC(=O)[C@H](CCCNC(=N)N)NC(=O)[C@H](CS)NC(=O)[C@H](CCCNC(=N)N)NC(=O)[C@@H](NC(=O)[C@H](CC(N)=O)NC(=O)[C@H](CCSC)NC(=O)CNC(=O)[C@H](C)NC(=O)[C@H](CCCNC(=N)N)NC(=O)[C@H](CCCNC(=N)N)NC(=O)[C@@H](NC(=O)[C@H](CS)NC(=O)[C@H](CC(=O)O)NC(=O)[C@H](CCCCN)NC(=O)[C@H](CC(=O)O)NC(=O)[C@@H](NC(=O)[C@@H](NC(=O)[C@H](CS)NC(=O)[C@@H]1CCCN1C(=O)[C@H](CC(N)=O)NC(=O)[C@@H]1CCCN1C(=O)[C@@H](NC(=O)[C@H](Cc1c[nH]cn1)NC(=O)[C@H](CO)NC(=O)[C@H](Cc1ccc(O)cc1)NC(=O)[C@@H](N)Cc1ccccc1)C(C)C)[C@@H](C)CC)[C@@H](C)O)[C@@H](C)CC)[C@@H](C)CC)C(C)C)C(=O)N[C@@H](CC(C)C)C(=O)N[C@@H](CCCNC(=N)N)C(=O)O` [NCR700] (H-FYSHVPNPCITDKDCIRRAGMNIRCRKGYCVNLILR-OH; N-terminus assumed): the “Antibacterial spectrum over the eight tested bacterial strains” value in [1] is “active against all strains except S. aureus and E. faecalis”. Besides, the “MBC Acinetobacter baumannii” value in assay [2] is given as 1.6 µM (≈ 6.76 µg/mL). The “MBC Klebsiella pneumoniae” value in assay [3] is given as 12.5 µM (≈ 52.8 µg/mL). Also, in assay [4], the “MBC Pseudomonas aeruginosa” value is listed as 6.25 µM (≈ 26.4 µg/mL). Also, the “MBC Salmonella enterica” value in assay [5] came out at 12.5 µM (≈ 52.8 µg/mL). In [6], the “MBC Escherichia coli” value is reported as 3.125 µM (≈ 13.2 µg/mL). For the same compound, in assay [7], the “MBC Listeria monocytogenes” value was 1.6 µM (≈ 6.76 µg/mL).

`CC[C@H](C)[C@H](NC(=O)[C@H](CO)NC(=O)[C@@H](NC(=O)[C@H](CO)NC(=O)[C@@H]1CCCN1C(=O)[C@@H]1CCCN1C(=O)[C@H](CS)NC(=O)[C@H](CC(=O)O)NC(=O)[C@@H](NC(=O)[C@H](CC(=O)O)NC(=O)[C@@H](NC(=O)[C@H](CCCCN)NC(=O)[C@H](CS)NC(=O)[C@H](CCCCN)NC(=O)[C@@H](NC(=O)[C@H](C)NC(=O)[C@@H](NC(=O)[C@H](C)N)C(C)C)[C@@H](C)O)[C@@H](C)O)C(C)C)[C@@H](C)O)C(=O)N[C@@H](CCCNC(=N)N)C(=O)N[C@@H](CCCNC(=N)N)C(=O)N[C@@H](Cc1ccc(O)cc1)C(=O)N[C@@H](CCCCN)C(=O)N[C@@H](CS)C(=O)N[C@H](C(=O)N[C@@H](CCCCN)C(=O)N[C@@H](CC(N)=O)C(=O)N[C@@H](CCCCN)C(=O)N[C@@H](CS)C(=O)N[C@@H](CCCNC(=N)N)C(=O)N[C@@H](Cc1ccc(O)cc1)C(=O)N[C@H](C(=O)N[C@@H](CCCNC(=N)N)C(=O)N[C@@H](CC(C)C)C(=O)N[C@@H](CO)C(=O)N[C@@H](Cc1ccc(O)cc1)C(=O)NCC(N)=O)[C@@H](C)O)[C@@H](C)O` [PsNCR351] (H-AVATKCKTDVDCPPSTSIRRYKCTKNKCRYTRLSYG-NH2; N-terminus assumed): the “MBC Acinetobacter baumannii” value in assay [2] was found to be 3.125 µM (≈ 12.9 µg/mL). Besides, the “MBC Pseudomonas aeruginosa” value in assay [4] is listed as 3.125 µM (≈ 12.9 µg/mL). In assay [8], the “MBC Staphylococcus aureus” value was 6.25 µM (≈ 25.7 µg/mL). Further, the “MBC Salmonella enterica” value in [5] is given as 25 µM (≈ 103 µg/mL). For the same compound, the “MBC Escherichia coli” value in assay [6] was found to be 3.125 µM (≈ 12.9 µg/mL). The “Ability to kill E. faecalis” value in [9] (3 h, ~10^7 log phase bacteria, peptides ≤25 µM) is “able to kill”. For the same compound, the “MBC Enterococcus faecalis” value in [9] (ATCC 29212, 3 h) is listed as 12.5 µM (≈ 51.4 µg/mL). The “MBC Listeria monocytogenes” value in assay [7] was 6.25 µM (≈ 25.7 µg/mL).
